Experimental data reported in PubChem BioAssay (NCI).
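Growth conditions: 96-well plates. Treatment: test compound, 48 hours, 5 concentrations. Analysis: linear interpolation between bracketing concentrations; unreached endpoints set to highest concentration. Abbreviation: GI50, concentration required for 50% inhibition of growth. TGI marks complete inhibition of growth.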

Columns and labels:
Test in all cases: NCI anticancer screen, dose series, 48 h
[1] = test system: 786-0 renal
[2] = test system: A498 renal
[3] = test system: A549 NSCLC
[4] = test system: ACHN renal
[5] = test system: BT-549 breast
[6] = test system: CAKI-1 renal
[7] = test system: CCRF-CEM leukemia
[8] = test system: COLO 205 colon
[9] = test system: DU-145 prostate
[10] = test system: EKVX NSCLC
[11] = test system: HCC-2998 colon
[12] = test system: HCT-116 colon
[13] = test system: HCT-15 colon
[14] = test system: HL-60(TB) leukemia
[15] = test system: HOP-62 NSCLC
[16] = test system: HOP-92 NSCLC
[17] = test system: HS 578T breast
[18] = test system: HT29 colon
[19] = test system: IGROV1 ovarian
[20] = test system: K-562 leukemia
[21] = test system: KM12 colon
[22] = test system: LOX IMVI melanoma
[23] = test system: M14 melanoma
[24] = test system: MALME-3M melanoma
[25] = test system: MCF7 breast
[26] = test system: MDA-MB-231 breast
[27] = test system: MDA-MB-435
[28] = test system: MOLT-4 leukemia
[29] = test system: NCI-H226 lung
[30] = test system: NCI-H23 lung
[31] = test system: NCI-H460 lung
[32] = test system: NCI-H522 lung
[33] = test system: NCI/ADR-RES ovarian
[34] = test system: OVCAR-3 ovarian
[35] = test system: OVCAR-4 ovarian
[36] = test system: OVCAR-5 ovarian
[37] = test system: OVCAR-8 ovarian
[38] = test system: PC-3 prostate
[39] = test system: RPMI-8226 leukemia
[40] = test system: RXF 393 renal
[41] = test system: SF-268 CNS
[42] = test system: SF-295 CNS
[43] = test system: SF-539 CNS
[44] = test system: SK-MEL-28 melanoma
[45] = test system: SK-MEL-5 melanoma
[46] = test system: SK-OV-3 ovarian
[47] = test system: SN12C renal
[48] = test system: SNB-19 CNS
[49] = test system: SNB-75 CNS
[50] = test system: SR leukemia
[51] = test system: SW-620 colon
[52] = test system: T-47D breast
[53] = test system: TK-10 renal
[54] = test system: U251 CNS
[55] = test system: UACC-257 melanoma
[56] = test system: UACC-62 melanoma
[57] = test system: UO-31 renal

`CCCCCCCCCCn1cc[n+](C)c1` was tested, and the GI50 [1] was 2.39 µM, the TGI [1] was 18.1 µM and the GI50 [2] was 0.383 µM. The TGI [2] was 9.73 µM, the GI50 [3] was 3.79 µM and the TGI [3] was 22.5 µM. The GI50 [4] was 3.38 µM, the TGI [4] was over 49.2 µM and the GI50 [5] was 1.56 µM. The TGI [5] was 8.2 µM, the GI50 [6] was 1.79 µM and the TGI [6] was 23.5 µM. It also gave a GI50 [7] of 0.43 µM, a TGI [7] of 4.51 µM and a GI50 [8] of 1.7 µM. It also gave a TGI [8] of 7.01 µM, a GI50 [9] of 5.25 µM and a TGI [9] of 30.7 µM. The GI50 [10] was 0.536 µM, the TGI [10] was 11.6 µM and the GI50 [11] was 1.56 µM. The TGI [11] was 11.2 µM, the GI50 [12] was 1.37 µM and the TGI [12] was over 36.9 µM. The GI50 [13] was 17.9 µM, the TGI [13] was over 100 µM and the GI50 [14] was 0.226 µM. It also gave a TGI [14] of 1.7 µM, a GI50 [15] of 3.16 µM and a TGI [15] of 17.5 µM. For the same molecule, the GI50 [16] was 2.92 µM, the TGI [16] was 22.6 µM and the GI50 [17] was 2.36 µM. It also gave a TGI [17] of 14 µM, a GI50 [18] of 2.23 µM and a TGI [18] of 19.2 µM. The GI50 [19] was 2.07 µM, the TGI [19] was 10.1 µM and the GI50 [20] was 0.263 µM. It also gave a TGI [20] of 3.67 µM, a GI50 [21] of 1.57 µM and a TGI [21] of 5.75 µM. For the same molecule, the GI50 [22] was 1.79 µM, the TGI [22] was 13.2 µM and the GI50 [23] was 1.9 µM. It also gave a TGI [23] of 13.5 µM, a GI50 [24] of 2.26 µM and a TGI [24] of 17.6 µM. The GI50 [25] was 1.69 µM, the TGI [25] was 13.6 µM and the GI50 [26] was 2.73 µM. The TGI [26] was 16.9 µM, the GI50 [27] was 1.4 µM and the TGI [27] was 8.64 µM. It also gave a GI50 [28] of 2.9 µM, a TGI [28] of 29 µM and a GI50 [29] of 2.43 µM. For the same molecule, the TGI [29] was 47 µM, the GI50 [30] was 0.648 µM and the TGI [30] was 28 µM. For the same molecule, the GI50 [31] was 3.52 µM, the TGI [31] was 19.2 µM and the GI50 [32] was 1.86 µM. It also gave a TGI [32] of 10.4 µM, a GI50 [33] of 47.4 µM and a TGI [33] of over 100 µM. The GI50 [34] was 1.94 µM, the TGI [34] was 8.59 µM and the GI50 [35] was 1.31 µM. For the same molecule, the TGI [35] was over 61.4 µM, the GI50 [36] was 2.93 µM and the TGI [36] was over 100 µM. It also gave a GI50 [37] of 1.67 µM, a TGI [37] of 15.8 µM and a GI50 [38] of 1.03 µM. For the same molecule, the TGI [38] was 6.73 µM, the GI50 [39] was 0.109 µM and the TGI [39] was 0.448 µM. For the same molecule, the GI50 [40] was 2.94 µM, the TGI [40] was 14.2 µM and the GI50 [41] was 3.77 µM. For the same molecule, the TGI [41] was 18.3 µM, the GI50 [42] was 1.39 µM and the TGI [42] was 8.43 µM. For the same molecule, the GI50 [43] was 2.51 µM, the TGI [43] was 13.5 µM and the GI50 [44] was 3.33 µM. The TGI [44] was 15.1 µM, the GI50 [45] was 1.17 µM and the TGI [45] was 2.79 µM. The GI50 [46] was 2.62 µM, the TGI [46] was 20.9 µM and the GI50 [47] was 2.54 µM. It also gave a TGI [47] of 9.71 µM, a GI50 [48] of 3.96 µM and a TGI [48] of 32.9 µM. It also gave a GI50 [49] of 2.69 µM, a TGI [49] of 11.4 µM and a GI50 [50] of 0.163 µM. It also gave a TGI [50] of 4.16 µM, a GI50 [51] of 3.3 µM and a TGI [51] of 33 µM. The GI50 [52] was 1.61 µM, the TGI [52] was over 21.7 µM and the GI50 [53] was 1.24 µM. For the same molecule, the TGI [53] was 9.58 µM, the GI50 [54] was 1.86 µM and the TGI [54] was 19.1 µM. The GI50 [55] was 1.81 µM, the TGI [55] was 9.92 µM and the GI50 [56] was 2.53 µM. It also gave a TGI [56] of 10.6 µM, a GI50 [57] of 10.3 µM and a TGI [57] of 50.7 µM.
